According to article PMC9860869, “First Phytochemical Profiling and In-Vitro Antiprotozoal Activity of Essential Oil and Extract of Plagiochila porelloides” (Molecules, 2023):
Each block holds one compound with its values, some of them ahead of it.

Legend:
[1] = Cytotoxicity assay on WI38 cells; type: cell-based; conditions: human, WI-38 normal fibroblast cells, pure compound (positive control), read-out: Cytotoxicity IC50 ± SD WI38
Protocol: (§1) Trypanosoma brucei brucei (strain 427) bloodstream forms were cultured in vitro in HMI9 medium containing 10% heat-inactivated fetal bovine serum. Leishmania mexicana mexicana promastigotes (MHOM/BZ/84/BEL46) were cultivated in vitro in a semi-defined medium (SDM-79) supplemented with 15% heat-inactivated fetal bovine serum. The human normal fibroblast cell line, WI-38, was cultivated in vitro in DMEM medium containing 4 mM L-glutamine, 1 mM sodium pyruvate supplemented with 10% heat-inactivated fetal bovine serum and penicillin–streptomycin (100 UI/mL to 100 µg/mL). All cells were incubated in a humidified atmosphere with 5% CO2 at 37 °C except the Leishmania promastigotes which were incubated at 28 °C.
(§2) The cytotoxicity of the essential oil and extracts on WI-38 and J774 cells was evaluated as previously described from the same stock solutions [45].

[2] = Cytotoxicity assay on J774 cells; type: cell-based, murine; conditions: mouse, J774 macrophage-like cells, pure compound (positive control), read-out: Cytotoxicity IC50 ± SD J774
Protocol: as §2

[3] = tested on: Leishmania mexicana mexicana promastigotes; experiment: In vitro test for antileishmanial activity; type: cell-based; conditions: Lmm promastigotes, pure compound (positive control), read-out: Antiprotozoal assay IC50 ± SD Lmm
Protocol: as §1
(§3) The in vitro test was performed as described previously. Pentamidine isethionate salt (a commercial antileishmanial drug) and suramine sodium salt (a commercial antitrypanosomal drug) were used as positive controls in all experiments with an initial concentration of 10 µg/mL. First, stock solutions of crude extracts and compounds were prepared in DMSO at 20 mg/mL (and 2 mg/mL for positive controls). The solutions were further diluted in medium to give 0.2 mg/mL stock solutions. Essential oil and extracts were tested in eight serial three-fold dilutions (final concentration range: 100–0.05 µg/mL) in 96-well microtiter plates. All tests were repeated three times in duplicate.

[4] = tested on: Trypanosoma brucei brucei (bloodstream forms); experiment: In vitro test for antitrypanosomal activity; type: cell-based; conditions: Tbb bloodstream forms, pure compound (positive control), read-out: Antiprotozoal assay IC50 ± SD Tbb
Protocol: as §1, §3

SMILES: CC[C@@]1(O)C(=O)OCc2c1cc1n(c2=O)Cc2cc3ccccc3nc2-1 [Camptothecin]
IC50 [1]: 31 ± 2 nM
IC50 [2]: 10 ± 1 nM

SMILES: N=C(N)c1ccc(OCCCCCOc2ccc(C(=N)N)cc2)cc1 [Pentamidine]
IC50 [3]: 70 ± 4 nM

IC50 [4]: 30 ± 4 nM
SMILES: Cc1ccc(C(=O)Nc2ccc(S(=O)(=O)O)c3cc(S(=O)(=O)O)cc(S(=O)(=O)O)c23)cc1NC(=O)c1cccc(NC(=O)Nc2cccc(C(=O)Nc3cc(C(=O)Nc4ccc(S(=O)(=O)O)c5cc(S(=O)(=O)O)cc(S(=O)(=O)O)c45)ccc3C)c2)c1 [Suramine]
